Holding throughout (assay type): cell-based
The test system of experiment [1] is HTT mRNA, alternative junction (AJ). Put plainly: Splicing assay (RT-qPCR): increase in HTT alternative junction (AJ) mRNA. As to conditions: A673 or K562 cell line, 24 hours treatment, top dose 10 uM; concentration having 50% response in AJ increase. The procedure:
(§1) Compounds described herein were used to modulate RNA transcript abundance in cells. The expression of a target mRNA was measured by detecting the formation of an exon-exon junction in the canonical transcript (CJ). A compound mediated exon-inclusion event was detected by observing an increase in formation of a new junction with an alternative exon (AJ). Real-time qPCR assays were used to detect these splicing switches and interrogate the potency of various compounds towards different target genes. A high-throughput real time quantitative PCR (RT-qPCR) assay was developed to measure these two isoforms of the mRNA (CJ and AJ) for an exemplary gene, HTT, together with a control housekeeping gene, GAPDH or GUSB or PPIA, used for normalization. Briefly, the A673 or K562 cell line was treated with various compounds described herein (e.g., compounds of Formula (I)). After treatment, the levels of the HTT mRNA targets were determined from each sample of cell lysate by cDNA synthesis followed by qPCR.
(§2) • Cells-to-CT 1-step kit: ThermoFisher A25602, Cells-to-CT lysis reagent: ThermoFisher 4391851C, TaqMan™ Fast Virus 1-Step Master Mix: ThermoFisher 4444436 • GAPDH: VIC-PL, ThermoFisher 4326317E (Assay: Hs99999905_ml)—used for K562/suspension cell lines • GUSB: VIC-PL, ThermoFisher 4326320E (Assay: Hs99999908_ml)—used for K562/suspension cell lines • PPIA: VIC-PL, ThermoFisher 4326316E (Assay: Hs99999904_ml)—used for A673/adherent cell lines
(§3) The A673 cell line was cultured in DMEM with 10% FBS. Cells were diluted with full growth media and plated in a 96-well plate (15,000 cells in 100 ul media per well). The plate was incubated at 37° C. with 5% CO2 for 24 hours to allow cells to adhere. An 11-point 3-fold serial dilution of the compounds was made in DMSO then diluted in media in an intermediate plate. Compounds were transferred from the intermediate plate to the cell plate with the top dose at a final concentration of 10 uM in the well. Final DMSO concentration was kept at or below 0.25%. The cell plate was returned to the incubator at 37° C. with 5% CO2 for an additional 24 hours.
(§4) The K562 cell line was cultured in IMDM with 10% FBS. For K562, cells were diluted with full growth media and plated in either a 96-well plate (50,000 cells in 50 uL media per well) or a 384-well plate (8,000-40,000 cells in 45 uL media per well). An 11-point 3-fold serial dilution of the compounds were made in DMSO then diluted in media in an intermediate plate. Compound was transferred from the intermediate plate to the cell plate with the top dose at a final concentration of 10 uM in the well. Final DMSO concentration was kept at or below 0.25%. Final volume was 100 uL for 96-well plate and 50 uL for 384-well plate. The cell plate was then placed in an incubator at 37° C. with 5% CO2 for 24 hours.
(§5) The cells were then gently washed with 50 uL-100 uL cold PBS before proceeding to addition of lysis buffer. 30 uL-50 uL of room temperature lysis buffer with DNAse I (and optionally RNAsin) was added to each well. Cells were shaken/mixed thoroughly at room temperature for 5-10 minutes for lysis to take place and then 3 uL-5 uL of room temperature stop solution was added and wells were shaken/mixed again. After 2-5 minutes, the cell lysate plate was transferred to ice for RT-qPCR reaction setup. The lysates could also be frozen at −80° C. for later use.
(§6) In some cases, a direct lysis buffer was used. An appropriate volume of 3× lysis buffer (10 mM Tris, 150 mM NaCl, 1.5%-2.5% Igepal and 0.1-1 U/uL RNAsin, pH 7.4) was directly added to either K562 or A673 cells in media and mixed by pipetting 3 times. The plates were then incubated at room temperature with shaking/rocking for 20-50 minutes to allow for lysis to take place. After this time, the cell lysate plate was transferred to ice to set up for the RT-qPCR reactions. The lysates could also be frozen at −80° C. for later use. […]

Experiment [2] relates to HTT mRNA, canonical junction (CJ). In words: Splicing assay (RT-qPCR): decrease in HTT canonical junction (CJ) mRNA. As to conditions: A673 or K562 cell line, 24 hours treatment, top dose 10 uM; concentration having 50% response in CJ decrease. The procedure:
as §1, §2, §3, §4, §5, §6
A general note: Quantitative PCR measures a nucleic acid by following its amplification.

The subject of a further experiment is HTT CJ mRNA. In words: Gene panel canonical junction qPCR assay: decrease in HTT CJ mRNA. To be noted: protocol as for Table 2, read-out: HTT (IC50, decrease in CJ mRNA levels). The procedure: as §1, §3, §4, §5
(§7) In some cases, a direct lysis buffer was used. An appropriate volume of 3× lysis buffer (10 mM Tris, 150 mM NaCl, 1.5%-2.5% Igepal and 0.1-1 U/uL RNAsin, pH 7.4) was directly added to either K562 or A673 cells in media and mixed by pipetting 3 times. The plates were then incubated at room temperature with shaking/rocking for 20-50 minutes to allow for lysis to take place. After this time, the cell lysate plate was transferred to ice to set up for the RT-qPCR reactions. The lysates could also be frozen at −80° C. for later use.
(§8) To set up 10 uL RT-qPCR reactions, cell lysates were transferred to 384-well qPCR plates containing the master mix according to the table below. The plates were sealed, gently vortexed, and spun down before the run. The volumes were adjusted accordingly in some instances where the reaction was carried in 20 uL. The table below summarizes the components of the RT-qPCR reactions:
(§9) The RT-qPCR reaction was performed using a QuantStudio (ThermoFisher) under the following fast cycling conditions. […]

In another experiment the test system is SMN2 CJ mRNA. In words: Gene panel canonical junction qPCR assay: decrease in SMN2 CJ mRNA. To be noted: protocol as for Table 2, read-out: SMN2 (IC50, decrease in CJ mRNA levels). As for the experimental part: as §1, §3, §4, §5, §7, §8, §9
The next experiment concerns Target C CJ mRNA. In words: Gene panel canonical junction qPCR assay: decrease in Target C CJ mRNA. To be noted: protocol as for Table 2, read-out: Target C (IC50, decrease in CJ mRNA levels). As for the experimental part:
as §1, §3, §4, §5, §7, §8, §9

Structures can show the parent of a compound that is named as a salt.

In general, AC50 refers to the midpoint of the concentration-response curve, whichever way the signal moves. By IC50 is commonly meant the point on the concentration scale where inhibition reaches its midpoint.

Turning to `Cc1cn2cc(NC(=O)c3ccc(N4CCNCC4)c4cncnc34)cc(F)c2n1` [Compound 112, N-[8-fluoro-2-methylimidazo[1,2-a]pyridin-6-yl]-5-(piperazin-1-yl)quinazoline-8-carboxamide], the AC50 in experiment [1] and in experiment [2] was 1 to 10 µM throughout. For the same compound, the values for the IC50 in the experiment on HTT CJ mRNA, in the experiment with SMN2 CJ mRNA and in the experiment on Target C CJ mRNA were 1 to 10 µM, below 0.1 µM and 0.1 to 1 µM, respectively.

Consider `Cc1cn2cc(NC(=O)c3ccc(C4CCNCC4)c4ccnnc34)cc(F)c2n1` [Compound 103, N-[8-fluoro-2-methylimidazo[1,2-a]pyridin-6-yl]-5-(piperidin-4-yl) cinnoline-8-carboxamide], for which the AC50 in experiment [1] fell in the range of 0.1 to 1 µM; in experiment [2], 1 to 10 µM. The 50% inhibitory concentration (IC50) in the experiment on HTT CJ mRNA lay within 0.1 to 1 µM; in the experiment with SMN2 CJ mRNA it was 1 to 10 µM; in the experiment with Target C CJ mRNA it was 1 to 10 µM.

Take `Cc1cn2cc(NC(=O)c3ccc(N4CCNCC4)c4nccnc34)cc(F)c2n1` [Compound 111, N-[8-fluoro-2-methylimidazo[1,2-a]pyridin-6-yl]-8-(piperazin-1-yl) quinoxaline-5-carboxamide]: the AC50 in experiment [1] and in experiment [2] was 1 to 10 µM each time. The IC50 was 1 to 10 µM in the experiment on HTT CJ mRNA, below 0.1 µM in the experiment on SMN2 CJ mRNA and 0.1 to 1 µM in the experiment with Target C CJ mRNA.

Consider `Cc1cc2c(N3CCNCC3)ccc(C(=O)Nc3cc(F)c4nc(C)cn4c3)c2nn1` [Compound 159], for which the AC50 in experiment [1] and in experiment [2] was 0.1 to 1 µM throughout. Also, the half-maximal inhibitory concentration (IC50) is 0.1 to 1 µM in the experiment on HTT CJ mRNA, below 0.1 µM in the experiment with SMN2 CJ mRNA and 1 to 10 µM in the experiment on Target C CJ mRNA.

Consider `Cc1cn2cc(NC(=O)c3ccc(N4CCNC5(CC5)C4)c4ccnnc34)cc(F)c2n1` [Compound 105, 5-[4,7-diazaspiro [2.5]octan-7-yl]-N-[8-fluoro-2-methylimidazo[1,2-a]pyridin-6-yl] cinnoline-8-carboxamide hydrochloride], for which the AC50 in experiment [1] and in experiment [2] was 1 to 10 µM each time.

As for `Cc1cn2cc(NC(=O)c3ccc(N4CCNC(C)(C)C4)c4ccnnc34)cc(F)c2n1` [Compound 106, 5-(3,3-dimethylpiperazin-1-yl)-N-[8-fluoro-2-methylimidazo[1,2-a]pyridin-6-yl] cinnoline-8-carboxamide hydrochloride], the concentration at half-maximal activity (AC50) in experiment [1] is 1 to 10 µM; in experiment [2], 0.1 to 1 µM.

In the case of `Cc1cn2cc(NC(=O)c3ccc(N4CCC(NC(C)(C)C)C4)c4ccnnc34)cc(F)c2n1` (centres unmarked) [Compound 109, 5-[3-(tert-butylamino)pyrrolidin-1-yl]-N-[8-fluoro-2-methylimidazo[1,2-a]pyridin-6-yl]cinnoline-8-carboxamide], the AC50 in experiment [1] and in experiment [2] was 1 to 10 µM throughout. Also, the IC50 in the experiment on HTT CJ mRNA is 1 to 10 µM; with SMN2 CJ mRNA, 0.1 to 1 µM.

For the compound `Cc1cn2cc(NC(=O)c3ccc(N4CCN5CCCC5C4)c4ccnnc34)cc(F)c2n1` (centres unmarked) [Compound 107], the concentration at half-maximal activity (AC50) is 0.1 to 1 µM in experiment [1] and 1 to 10 µM in experiment [2].

`COc1ccc2c(N3CCNCC3)ccc(-c3cc(F)c4nc(C)cn4c3)c2n1` [Compound 114, 8-[8-fluoro-2-methylimidazo[1,2-a]pyridin-6-yl]-2-methoxy-5-(piperazin-1-yl) quinoline]: the AC50 in experiment [1] and in experiment [2] was above 10 µM throughout. Also, the IC50 in the experiment with HTT CJ mRNA and with SMN2 CJ mRNA was above 10 µM in each case.

`Cc1cn2cc(NC(=O)c3ccc(N(C)C4CCN(C)CC4)c4ccnnc34)cc(F)c2n1` [Compound 136, N-[8-fluoro-2-methylimidazo[1,2-a]pyridin-6-yl]-5-[methyl(1-methylpiperidin-4-yl)amino] cinnoline-8-carboxamide]: the AC50 in experiment [1] and in experiment [2] was 1 to 10 µM throughout.

Regarding `Cc1cn2cc(NC(=O)c3ccc(N(C)C4CC(C)(C)NC(C)(C)C4)c4ccnnc34)cc(F)c2n1` [Compound 135, N-[8-fluoro-2-methylimidazo[1,2-a]pyridin-6-yl]-5-[methyl(2,2,6,6-tetramethylpiperidin-4-yl)amino]cinnoline-8-carboxamide], the AC50 in experiment [1] was 1 to 10 µM; in experiment [2] it was 0.1 to 1 µM.

As to `Cc1cn2cc(NC(=O)c3ccc(N4CCNCC4)c4ncnnc34)cc(F)c2n1` [Compound 110, N-[8-fluoro-2-methylimidazo[1,2-a]pyridin-6-yl]-5-(piperazin-1-yl)-1,2,4-benzotriazine-8-carboxamide], the AC50 in experiment [1] and in experiment [2] was 1 to 10 µM each time.

With `CCC1CN(c2ccc(C(=O)Nc3cc(F)c4nc(C)cn4c3)c3nnccc23)CCN1` (centres unmarked) [Compound 130, 5-(3-ethylpiperazin-1-yl)-N-[8-fluoro-2-methylimidazo[1,2-a]pyridin-6-yl] cinnoline-8-carboxamide hydrochloride], the AC50 in experiment [1] and in experiment [2] was 1 to 10 µM each time. For the same compound, the 50% inhibitory concentration (IC50) with HTT CJ mRNA is 1 to 10 µM; in the experiment on SMN2 CJ mRNA it was below 0.1 µM.

In the case of `Cc1cn2cc(NC(=O)c3ccc(N4CCN(C)C(C)C4)c4ccnnc34)cc(F)c2n1` (centres unmarked) [Compound 129, 5-(3,4-dimethylpiperazin-1-yl)-N-[8-fluoro-2-methylimidazo [1,2-a]pyridin-6-yl]cinnoline-8-carboxamide], the AC50 in experiment [1] and in experiment [2] was 1 to 10 µM each time. Moreover, the values for the IC50 in the experiment on HTT CJ mRNA and in the experiment on SMN2 CJ mRNA were 1 to 10 µM and below 0.1 µM, respectively.

In the case of `Cc1cn2cc(-c3ccc(N4CCNCC4)c4ccc(O)nc34)cc(F)c2n1` [Compound 144, 8-[8-fluoro-2-methylimidazo[1,2-a]pyridin-6-yl]-5-(piperazin-1-yl)quinolin-2-ol], the concentration at half-maximal activity (AC50) in experiment [1] and in experiment [2] was above 10 µM each time. The 50% inhibitory concentration (IC50) in the experiment on HTT CJ mRNA and in the experiment with SMN2 CJ mRNA was above 10 µM in each case.

`CCNC1CCN(c2ccc(C(=O)Nc3cc(F)c4nc(C)cn4c3)c3nnccc23)CC1` [Compound 139, 5-[4-(ethylamino)piperidin-1-yl]-N-[8-fluoro-2-methylimidazo[1,2-a]pyridin-6-yl]cinnoline-8-carboxamide]: the AC50 in experiment [1] and in experiment [2] was 1 to 10 µM in each case.

Take `Cc1cn2cc(NC(=O)c3ccc(N4CC(C)(C)NC(C)(C)C4)c4ccnnc34)cc(F)c2n1` [Compound 104, N-[8-fluoro-2-methylimidazo[1,2-a]pyridin-6-yl]-5-(3,3,5,5-tetramethylpiperazin-1-yl) cinnoline-8-carboxamide]: the concentration at half-maximal activity (AC50) in experiment [1] and in experiment [2] was 1 to 10 µM each time.

Values taken from US20240226098A1, “COMPOUNDS AND METHODS FOR MODULATING SPLICING” (REMIX THERAPEUTICS INC., priority 2020, published 2024).
